From patent US20230286925A1, “PHENYL TRIAZOLE MLL1-WDR5 PROTEIN-PROTEIN INTERACTION INHIBITOR” (HUYABIO International, LLC, priority 2022, published 2023)
Like-named read-outs stand apart in the source and are kept apart here.

Tests used:
[1] = molecular target: MLL1-WDR5 protein-protein interaction (Homo sapiens (Human), UniProt P61964); experiment: WDR5 TR-FRET assay of inhibition against MLL1-WDR5 protein-protein interaction; assay type: binding
Procedure: WDR5 TR-FRET Assay Procedure: Stock compounds were transferred to the assay plate by Echo Liquid Handler. Reactions were performed in the assay buffer (1×PBS, 300 mM NaCl, 0.5 mM TCEP, 0.1% CHAPS) containing 5 nM WDR5 protein, 10 nM peptide (Ac-ARTEVHLRKS-[Ahx-Ahx] [C]-Alexa Fluor 488-NH2) and 0.25 nM Tb-anti His antibody (Tb-Ab) in 384-well white plate (PerkinElmer) with a final volume of 20 μl. Compounds were incubated with WDR5 protein for 30 min at room temperature. Plates were covered, protected from light and incubated for 60 min at room temperature after adding the peptide and Tb-Ab. EnVision Multimode Plate Reader (PerkinElmer) was used for the TR-FRET assay with excitation wavelength at 340 nm and emission wavelength at 495 and 520 nm. The ratio of the 520/495 wavelengths were used to assess the degree of the FRET signal. IC50 was calculated by fitting the inhibition data using XLfit software to sigmoidal dose-response model.
Biphenyl compound DDO-2084 was reported to be a small molecule inhibitor that can inhibit MLL1-WDR5 protein-protein interaction, reduce MLL1 enzyme catalytic activity, and downregulate the expression of Hox and Meis-1 genes (Eur. J. Med. Chem. 2016, 124, 480-489). DDO-2084 is used as a positive control compound.

MV-411 cells = experiment: Anti-proliferative activity against leukemia cells (CellTiterGlo viability, 72 hrs); assay type: cell-based
Procedure: Procedure: MV-411 or Molm-13 cells were seeded into 384 well plates at 2000 cells/well density in 50 uL according plate map and were allowed to naturally sediment by waiting about 30 min in Clean Bench. Next, plated cells were centrifuged for 1 min at 1000 rpm and the excess cells were transferred into the flasks for further culture. Cells in the assay plates were incubated (at least 4 hrs) at 37° C., 5% CO2 for next process followed by adding the compounds as the plate map indicated. The tests were performed in duplicates with treatment of compounds at 10 pts 3 fold titration in 384 well plates. Taxol was as positive control while DMSO as negative control. To rule out edge effect, the wells on the edge were not seeded and therefore one 384 well plate holds 13 compounds. Cells viability was measured 72 hrs after incubation with compounds and using CellTiterGlo (promega) viability assay according to manufactory's instruction to check the ATP production in each well.
Experiments on anti-proliferative activity against leukemia cells were conducted with some of the compounds of the invention.

[2] = Table 7, read-out: WDR5 TR-FRET Assay (IC50 nM)
[3] = MV4-11, MV-411 human acute monocytic leukemia cell, Table 7
[4] = WDR5 TR-FRET, 5 nM WDR5 protein, 10 nM peptide, read-out: MLL1-WDR5 PPI inhibitory activity
[5] = MV4-11, MV-411 human acute monocytic leukemia cell, Table 6

Structure (SMILES)	IC50 [1, 2] [nM]	GI50 (MV-411 cells; [3]) [µM]	IC50 [1, 4] [nM]	GI50 (MV-411 cells; [5]) [µM]	GI50 (MV-411 cells; MV-411 human acute monocytic leukemia cell, Table 6) [µM]
C[C@@H]1CN(c2cc(F)c(-c3ccnc(N4CCO[C@@H](C)C4)n3)cc2Nc2ncnc(Cl)c2N)C[C@H](C)N1C [DDO-2213_029, 6-chloro-N4-(4-fluoro-5-(2-((S)-2-methylmorpholino)pyrimidin-4-yl)-2-((3S,5R)-3,4,5-trimethylpiperazin-1-yl)phenyl)pyrimidine-4,5-diamine]	12.9	17.2			
Cc1c(F)c(N)cc(C(=O)Nc2cc(-n3cc(C(=O)N(C)CCCN4CCOCC4)nn3)ccc2N2CCN(C)CC2)c1Cl [HYBI_019]			20.4	27.1	
CN1CCN(c2ccc(-n3cc(C(=O)NCCCN4CCOCC4)nn3)cc2NC(=O)c2cc(O)cc(C(F)(F)F)c2)CC1 [HYBI_046]			271	10.5	
Cc1c(F)c(N)cc(C(=O)Nc2cc(-n3cc(C(=O)NC4CCCCC4)nn3)c(F)cc2N2C[C@@H](C)N(C)[C@@H](C)C2)c1Cl [HYBI_085]			3.86	2.51	
CN1CCN(c2ccc(-n3cc(C(=O)NCCCN4CCOCC4)nn3)cc2NC(=O)c2cc(O)cc(F)c2F)CC1 [HYBI_047]			466	16.8	
CC(C)NC(=O)c1ccc(-c2cc(Nc3ncnc(Cl)c3N)c(N3C[C@@H](C)N(C)[C@@H](C)C3)cc2F)cc1 [DDO-2213_004, 5′-((5-amino-6-chloropyrimidin-4-yl)amino)-2′-fluoro-N-isopropyl-4′-((3S,5R)-3,4,5-trimethylpiperazin-1-yl)-[1,1′-biphenyl]-4-carboxamide]	68.8	14.8			
C[C@@H]1CN(c2cc(F)c(-c3cnc(N4CCOCC4)nc3)cc2Nc2ncnc(Cl)c2N)C[C@H](C)N1C [DDO-2213_021, 6-chloro-N4-(4-fluoro-5-(2-morpholinopyrimidin-5-yl)-2-((3S,5R)-3,4,5-trimethylpiperazin-1-yl)phenyl)pyrimidine-4,5-diamine]	23.4	9.01			
C[C@@H]1CN(c2cc(F)c(C3=CCCN(c4ncc(CN5CCOCC5)cn4)C3)cc2Nc2ncnc(Cl)c2N)C[C@H](C)N1C [DDO-2213_026, 6-chloro-N^4-(4-fluoro-5-(1-(5-(morpholinomethyl)pyrimidin-2-yl)-1,2,5,6-tetrahydropyridin-3-yl)-2-((3S,5R)-3,4,5-trimethylpiperazin-1-yl)phenyl)pyrimidine-4,5-diamine]	18.6	12.7			
Cc1c(F)c(N)cc(C(=O)Nc2cc(-n3cc(C(=O)NCC4CCCCC4)nn3)c(F)cc2N2C[C@@H](C)N(C)[C@@H](C)C2)c1Cl [HYBI_110]			3	25	
C[C@@H]1CN(c2cc(F)c(-c3ccc(C(=O)N(C)C)cc3)cc2Nc2ncnc(Cl)c2N)C[C@H](C)N1C [DDO-2213_002, 4-[5-[(5-amino-6-chloro-pyrimidin-4-yl)amino]-2-fluoro-4-[(3R,5S)-3,4,5-trimethylpiperazin-1-yl]phenyl]-N,N-dimethyl-benzamide]	55.5	15.6			
C[C@H]1CN(c2cc(F)c(-c3ccc(C(=O)NCC4CCOCC4)cc3)cc2Nc2ncnc(Cl)c2N)CCN1C [DDO-2213_016, (S)-5′-((5-amino-6-chloropyrimidin-4-yl)amino)-4′-(3,4-dimethylpiperazin-1-yl)-2′-fluoro-N-((tetrahydro-2H-pyran-4-yl)methyl)-[1,1′-biphenyl]-4-carboxamide]	12.2	6.31			
Cc1c(F)c(N)cc(C(=O)Nc2cc(-n3cc(C(=O)N4CCN(C)CC4)nn3)c(F)cc2N2C[C@@H](C)N(C)[C@@H](C)C2)c1Cl [HYBI_084]			4.72	3.35	
C[C@H]1CN(c2ccc(-c3ccc(C(=O)NCCN4CCOCC4)cc3)c(F)c2Nc2ncnc(Cl)c2N)CCN1C [DDO-2213_012, (S)-3′-((5-amino-6-chloropyrimidin-4-yl)amino)-4′-(3,4-dimethylpiperazin-1-yl)-2′-fluoro-N-(2-morpholinoethyl)-[1,1′-biphenyl]-4-carboxamide]	56.4	104			
C[C@@H]1CN(c2cc(F)c(-c3ccnc(N4CCOCC4)n3)cc2Nc2ncnc(Cl)c2N)C[C@H](C)N1C [DDO-2213_024, 6-chloro-N4-(4-fluoro-5-(2-morpholinopyrimidin-4-yl)-2-((3S,5R)-3,4,5-trimethylpiperazin-1-yl)phenyl)pyrimidine-4,5-diamine]	15	18.5			
Cc1c(F)c(N)cc(C(=O)Nc2cc(-n3cc(C(=O)OCC(C)C)nn3)ccc2N2CCN(C)CC2)c1Cl [HYBI_003, isobutyl 1-(3-(5-amino-2-chloro-4-fluoro-3-methylbenzamido)-4-(4-methylpiperazin-1-yl)phenyl)-1H-1,2,3-triazole-4-carboxylate]			15.6	3.41	
Cc1c(F)c(N)cc(C(=O)Nc2cc(-n3cc(C(=O)NCCCN4CCOCC4)nn3)ccc2N2C[C@@H](C)N(C)[C@@H](C)C2)c1Cl [HYBI_021]			7.09	25.1	
COc1ccc(COC(=O)c2cn(-c3ccc(N4CCN(C)CC4)c(NC(=O)c4cc(N)c(F)c(C)c4Cl)c3)nn2)cc1 [HYBI_010]			9.62	5.95	
Cc1c(F)c(N)cc(C(=O)Nc2cc(-n3cc(C(=O)N(C)CCCO)nn3)ccc2N2CCN(C)CC2)c1Cl [HYBI_019A]			17.1	24.9	
Cc1c(F)ccc(C(=O)Nc2cc(-n3cc(C(=O)NCCCN4CCOCC4)nn3)c(F)cc2N2CCN(C)CC2)c1Cl [HYBI_053]			19.4		5.69
C[C@@H]1CN(c2ccc(-c3ccc(NC(=O)C4CCCCC4)cc3)c(F)c2Nc2ncnc(Cl)c2N)C[C@H](C)N1C [DDO-2213_014, N-(3′-((5-amino-6-chloropyrimidin-4-yl)amino)-2′-fluoro-4′-((3S,5R)-3,4,5-trimethylpiperazin-1-yl)-[1,1′-biphenyl]-4-yl)cyclohexanecarboxamide]	186	8.26			
C[C@@H]1CN(c2cc(F)c(-c3ccnc(N(C)C)n3)cc2Nc2ncnc(Cl)c2N)C[C@H](C)N1C [DDO-2213_028, 6-chloro-N4-(5-(2-(dimethylamino)pyrimidin-4-yl)-4-fluoro-2-((3S,5R)-3,4,5-trimethylpiperazin-1-yl)phenyl)pyrimidine-4,5-diamine]	51.8	> 200			
C[C@@H]1CN(c2cc(F)c(-n3cc(C(=O)N4CCOCC4)nn3)cc2Nc2ncnc(Cl)c2N)C[C@H](C)N1C [DDO-2213_010, (1-(5-((5-amino-6-chloropyrimidin-4-yl)amino)-2-fluoro-4-((3S,5R)-3,4,5-trimethylpiperazin-1-yl)phenyl)-1H-1,2,3-triazol-4-yl)(morpholino)methanone]	250	7.93			
Cc1c(F)c(N)cc(C(=O)Nc2cc(-n3cc(C(=O)NC4CCN(C)CC4)nn3)c(F)cc2N2C[C@@H](C)N(C)[C@@H](C)C2)c1Cl [HYBI_087]			2.6	> 200	
CN1CCN(c2ccc(-n3cc(C(=O)NCCCN4CCOCC4)nn3)cc2NC(=O)c2nn(C)c3ccccc23)CC1 [HYBI_050]			5560	10.7	
C[C@@H]1CN(c2cc(F)c(-c3ccc(NC(=O)C4CCCCC4)cc3)cc2Nc2ncnc(Cl)c2N)C[C@H](C)N1C [DDO-2213_006, N-(5′-((5-amino-6-chloropyrimidin-4-yl)amino)-2′-fluoro-4′-((3S,5R)-3,4,5-trimethylpiperazin-1-yl)-[1,1′-biphenyl]-4-yl)cyclohexanecarboxamide]	38.6	6.09			
